Assays:
RXRβ [1] = target: T1, RXRβ (Homo sapiens, UniProt P28702); assay: ligand binding assay, RXRβ
T1 sequence (P28702 1-533): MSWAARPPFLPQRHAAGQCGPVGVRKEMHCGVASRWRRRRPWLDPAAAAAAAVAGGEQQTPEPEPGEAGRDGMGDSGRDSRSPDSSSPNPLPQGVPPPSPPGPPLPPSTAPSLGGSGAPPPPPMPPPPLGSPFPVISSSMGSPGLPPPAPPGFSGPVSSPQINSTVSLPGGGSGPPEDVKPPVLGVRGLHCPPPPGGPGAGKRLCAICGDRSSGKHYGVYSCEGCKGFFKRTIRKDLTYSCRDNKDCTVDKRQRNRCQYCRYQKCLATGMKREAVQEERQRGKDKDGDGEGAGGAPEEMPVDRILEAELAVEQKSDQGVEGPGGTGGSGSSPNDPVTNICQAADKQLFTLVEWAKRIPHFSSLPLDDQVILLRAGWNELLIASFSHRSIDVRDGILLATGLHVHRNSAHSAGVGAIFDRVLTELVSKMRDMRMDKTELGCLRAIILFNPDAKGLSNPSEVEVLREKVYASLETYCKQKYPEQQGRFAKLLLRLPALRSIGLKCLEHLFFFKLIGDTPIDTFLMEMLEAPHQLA

RARγ [2] = target: T2, RARγ (Homo sapiens, UniProt P13631); assay: ligand binding assay, RARγ
T2 sequence (P13631 1-454): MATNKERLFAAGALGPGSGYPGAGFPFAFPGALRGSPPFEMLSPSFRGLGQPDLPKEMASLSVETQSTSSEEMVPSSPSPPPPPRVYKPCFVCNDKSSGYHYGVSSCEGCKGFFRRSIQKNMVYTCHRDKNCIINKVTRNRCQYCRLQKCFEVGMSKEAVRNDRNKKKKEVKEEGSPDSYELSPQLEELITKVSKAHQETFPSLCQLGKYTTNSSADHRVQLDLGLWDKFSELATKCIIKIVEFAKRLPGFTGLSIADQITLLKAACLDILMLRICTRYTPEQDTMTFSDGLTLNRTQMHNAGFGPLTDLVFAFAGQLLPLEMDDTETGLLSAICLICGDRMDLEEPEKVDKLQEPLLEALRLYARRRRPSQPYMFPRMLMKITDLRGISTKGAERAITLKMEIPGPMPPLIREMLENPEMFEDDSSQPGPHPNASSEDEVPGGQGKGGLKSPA

RARγ [3] = target: T3, RARγ (Homo sapiens, UniProt P13631); assay: chimeric receptor transactivation assay, RARγ
T3 sequence (P13631 185-419 limits assumed): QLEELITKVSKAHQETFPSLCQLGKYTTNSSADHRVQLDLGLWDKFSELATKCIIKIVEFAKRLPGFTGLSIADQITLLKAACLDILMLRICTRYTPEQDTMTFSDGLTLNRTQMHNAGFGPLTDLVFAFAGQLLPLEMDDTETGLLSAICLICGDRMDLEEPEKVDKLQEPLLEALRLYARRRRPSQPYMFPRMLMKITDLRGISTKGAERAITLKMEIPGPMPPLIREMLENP

RARβ [4] = target: T4, RARβ (Homo sapiens, UniProt P10826); assay: chimeric receptor transactivation assay, RARβ; settings: for RAR β transactivation efficacy as a percentage compared to the standard compound: value in parentheses, relative to standard compound of U.S. Pat. No. 6,114,533
T4 sequence (P10826 183-417 limits assumed): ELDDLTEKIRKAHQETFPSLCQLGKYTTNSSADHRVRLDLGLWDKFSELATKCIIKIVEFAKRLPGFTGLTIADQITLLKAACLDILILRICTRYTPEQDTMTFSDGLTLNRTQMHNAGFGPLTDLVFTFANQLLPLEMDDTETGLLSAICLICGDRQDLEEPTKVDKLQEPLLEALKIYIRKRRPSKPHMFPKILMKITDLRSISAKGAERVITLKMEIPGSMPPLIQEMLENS

RARβ [5] = target: T5, RARβ (Homo sapiens, UniProt P10826); assay: ligand binding assay, RARβ
T5 sequence (P10826 1-455): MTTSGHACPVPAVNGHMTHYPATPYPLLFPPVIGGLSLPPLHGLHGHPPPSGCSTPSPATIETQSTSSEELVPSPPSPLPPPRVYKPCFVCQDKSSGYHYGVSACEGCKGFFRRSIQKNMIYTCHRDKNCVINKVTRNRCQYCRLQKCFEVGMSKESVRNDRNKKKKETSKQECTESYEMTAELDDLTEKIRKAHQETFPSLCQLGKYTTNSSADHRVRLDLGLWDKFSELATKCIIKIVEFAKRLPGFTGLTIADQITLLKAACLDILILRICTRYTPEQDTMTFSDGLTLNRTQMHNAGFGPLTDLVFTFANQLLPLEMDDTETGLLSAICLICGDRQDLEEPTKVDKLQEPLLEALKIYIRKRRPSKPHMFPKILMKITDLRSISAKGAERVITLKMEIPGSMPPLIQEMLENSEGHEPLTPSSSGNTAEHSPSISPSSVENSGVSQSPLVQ

RARα = target: T6, RARα (Homo sapiens, UniProt P10276); assay: ligand binding assay, RARα
T6 sequence (P10276 1-462): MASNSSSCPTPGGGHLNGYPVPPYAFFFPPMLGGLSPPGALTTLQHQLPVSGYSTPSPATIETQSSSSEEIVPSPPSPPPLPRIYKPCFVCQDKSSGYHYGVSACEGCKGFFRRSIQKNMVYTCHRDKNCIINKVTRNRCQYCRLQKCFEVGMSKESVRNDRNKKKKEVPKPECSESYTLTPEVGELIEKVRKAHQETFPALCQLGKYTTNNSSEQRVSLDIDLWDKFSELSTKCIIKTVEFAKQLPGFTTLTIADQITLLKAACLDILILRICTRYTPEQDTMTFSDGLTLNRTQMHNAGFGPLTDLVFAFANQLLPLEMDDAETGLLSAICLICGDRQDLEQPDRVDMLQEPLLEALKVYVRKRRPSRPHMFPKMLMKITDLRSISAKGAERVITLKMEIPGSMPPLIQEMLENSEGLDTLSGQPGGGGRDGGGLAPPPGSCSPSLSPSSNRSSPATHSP

RXRα [6] = target: T7, RXRα (Homo sapiens, UniProt P19793); assay: ligand binding assay, RXRα
T7 sequence (P19793 1-462): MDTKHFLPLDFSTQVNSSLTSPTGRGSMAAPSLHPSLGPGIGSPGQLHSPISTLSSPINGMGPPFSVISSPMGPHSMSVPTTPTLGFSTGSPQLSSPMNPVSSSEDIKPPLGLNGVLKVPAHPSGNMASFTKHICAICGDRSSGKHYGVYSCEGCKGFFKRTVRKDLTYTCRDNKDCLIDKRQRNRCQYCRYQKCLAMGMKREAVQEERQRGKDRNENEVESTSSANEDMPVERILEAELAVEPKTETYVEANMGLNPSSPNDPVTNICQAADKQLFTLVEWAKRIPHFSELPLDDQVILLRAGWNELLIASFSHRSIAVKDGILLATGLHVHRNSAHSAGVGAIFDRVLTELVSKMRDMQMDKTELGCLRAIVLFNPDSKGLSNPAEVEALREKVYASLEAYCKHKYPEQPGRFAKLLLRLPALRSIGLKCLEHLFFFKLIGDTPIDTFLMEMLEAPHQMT

RXRγ = target: T8, RXRγ (Homo sapiens, UniProt P48443); assay: holoreceptor transactivation assay, RXRγ; settings: for RXR γ transactivation efficacy as a percentage compared to the standard compound: value in parentheses, relative to standard compound of U.S. Pat. No. 6,114,533
T8 sequence (P48443 1-463): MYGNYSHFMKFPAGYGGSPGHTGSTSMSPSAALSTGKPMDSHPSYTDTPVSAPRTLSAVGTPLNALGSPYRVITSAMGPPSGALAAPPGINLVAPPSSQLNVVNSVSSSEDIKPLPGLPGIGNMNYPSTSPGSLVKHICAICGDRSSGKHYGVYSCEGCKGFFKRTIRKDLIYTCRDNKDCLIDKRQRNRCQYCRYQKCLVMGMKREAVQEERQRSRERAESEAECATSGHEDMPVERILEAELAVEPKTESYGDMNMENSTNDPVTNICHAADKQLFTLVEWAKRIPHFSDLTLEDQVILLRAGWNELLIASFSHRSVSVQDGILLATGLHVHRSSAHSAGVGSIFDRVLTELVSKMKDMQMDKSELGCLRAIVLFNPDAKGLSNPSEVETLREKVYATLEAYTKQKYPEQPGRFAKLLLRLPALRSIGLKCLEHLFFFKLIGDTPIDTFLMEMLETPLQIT

RXRα [7] = target: T7, RXRα; assay: holoreceptor transactivation assay, RXRα; settings: for RXR α transactivation efficacy as a percentage compared to the standard compound: value in parentheses, relative to standard compound of U.S. Pat. No. 6,114,533
RXRβ [8] = target: T1, RXRβ; assay: holoreceptor transactivation assay, RXRβ; settings: for RXR β transactivation efficacy as a percentage compared to the standard compound: value in parentheses, relative to standard compound of U.S. Pat. No. 6,114,533
[9] = system: Female diabetic db/db mice; assay: serum glucose, triglyceride and thyroxine levels in female db/db mice; settings: for Glucose Day 0 / Triglycerides Day 0: Day 0 (pre-treatment), female db/db mice, group later given standard compound 5 mg/kg or Compound 6 50 mg/kg by oral gavage; for Glucose Day 3, 3 h / Triglycerides Day 3, 3 h / Glucose Day 6, 3 h: oral gavage daily
[10] = standard compound 5 mg/kg, Compound 6 50 mg/kg

SMILES	Ki (RXRβ [1]) [µM]	Ki (RARγ [2]) [µM]	EC50 (RARβ [4]) [µM]	RAR β transactivation efficacy as a percentage compared to the standard compound (RARβ [4]) [%]	Ki (RARβ [5]) [µM]	Ki (RARα) [µM]	Ki (RXRα [6]) [µM]	EC50 (RXRγ) [µM]	RXR γ transactivation efficacy as a percentage compared to the standard compound (RXRγ) [%]	EC50 (RXRα [7]) [µM]	RXR α transactivation efficacy as a percentage compared to the standard compound (RXRα [7]) [%]	EC50 (RXRβ [8]) [µM]	RXR β transactivation efficacy as a percentage compared to the standard compound (RXRβ [8]) [%]	Glucose Day 0 [9] [mg/dL]	Triglycerides Day 0 [9] [mg/dL]	Glucose Day 3, 3 h [9, 10] [mg/dL]	Triglycerides Day 3, 3 h [9, 10] [mg/dL]	Glucose Day 6, 3 h [9, 10] [mg/dL]	also measured
CC(/C=C/C=C(c1cc2c(cc1O)C(C)(C)CCC2(C)C)C(F)(F)F)=C\C(=O)O (stereo in doubt) [Compound 4, (2E,4E,6Z)-8,8,8-Trifluoro-7-(3-hydroxy-5,5,8,8-tetramethyl-5,6,7,8-tetrahydro-naphthalen-2-yl)-3-methyl-octa-2,4,6-trienoic acid]	2.6	0.496	> 0.5	~30	4.4	2.4	0.471	0.016	69	0.009	65	0.067	54						EC50 (RARγ [3]): > 0.5 µM; RAR γ transactivation efficacy as a percentage compared to the standard compound (RARγ [3]; value in parentheses, relative to standard compound of U.S. Pat. No. 6,114,533): ~30%
COc1cc2c(cc1C(=C/C=C/C(C)=C/C(=O)O)C(F)(F)F)C(C)(C)CCC2(C)C (stereo in doubt) [Compound 5, (2E,4E,6Z)-8,8,8-Trifluoro-7-(3-methoxy-5,5,8,8-tetramethyl-5,6,7,8-tetrahydro-naphthalen-2-yl)-3-methyl-octa-2,4,6-trienoic acid]	0.423	1.2	0.15	32	0.484	0.504	0.066	0.002	121	0.0006	112	0.005	111						
CC(/C=C/[C@@H]1C[C@]1(C)c1ccc2c(c1)C(C)(C)CCC2(C)C)=C\C(=O)O [Standard compound]														526 ± 135	290 ± 55	444 ± 125	590 ± 422	399 ± 128	T4 Day 7 ([9]; Day 7, oral gavage daily for seven days, standard compound 5 mg/kg, Compound 6 50 mg/kg): 1.5 ± 0.6 µg/dL; effect on serum thyroxine levels ([9]; diabetic mammals): reducing serum thyroxine levels

Second part, led by results:

Ki (RXRβ [1]) [µM]	Ki (RARγ [2]) [µM]	EC50 (RARβ [4]) [µM]	RAR β transactivation efficacy as a percentage compared to the standard compound (RARβ [4]) [%]	Ki (RARβ [5]) [µM]	Ki (RARα) [µM]	Ki (RXRα [6]) [µM]	EC50 (RXRγ) [µM]	RXR γ transactivation efficacy as a percentage compared to the standard compound (RXRγ) [%]	EC50 (RXRα [7]) [µM]	RXR α transactivation efficacy as a percentage compared to the standard compound (RXRα [7]) [%]	EC50 (RXRβ [8]) [µM]	RXR β transactivation efficacy as a percentage compared to the standard compound (RXRβ [8]) [%]	SMILES	Glucose Day 0 [9] [mg/dL]	Triglycerides Day 0 [9] [mg/dL]	Glucose Day 3, 3 h [9, 10] [mg/dL]	Triglycerides Day 3, 3 h [9, 10] [mg/dL]	Glucose Day 6, 3 h [9, 10] [mg/dL]	also measured
0.115	> 10	0.054	9	0.452	1.8	0.022							CCCOc1cc2c(cc1C(=C/C=C/C(C)=C/C(=O)O)C(F)(F)F)C(C)(C)CCC2(C)C (stereo in doubt) [Compound 7, (2E,4E,6Z)-8,8,8-Trifluoro-3-methyl-7-(5,5,8,8-tetramethyl-3-propoxy-5,6,7,8-tetrahydro-naphthalen-2-yl)-octa-2,4,6-trienoic acid]						
0.068	> 10	0.067	15	0.372	> 10	0.014	0.025	17	0.01	17	0.097	30	CCOc1cc2c(cc1\C(=C/C=C/C(C)=C/C(=O)O)C(F)(F)F)C(C)(C)CCC2(C)C [Compound 6, (2E,4E,6Z)-7-(3-Ethoxy-5,5,8,8-tetramethyl-5,6,7 8-tetrahydro-naphthalen-2-yl)-8,8,8-trifluoro-3-methyl-octa-2,4,6-trienoic acid]	561 ± 159	350 ± 69	442 ± 164	240 ± 192	483 ± 175	

— patent US6884820B2, “5,6,7,8-tetrahydronaphthalen-2-yl-7-fluoroalkyl-heptatrienoic acid derivatives having serum glucose reducing activity” (Allergan, Inc., priority 2003, dated 2005)
